Results: ChEMBL document CHEMBL1201862, “PubChem BioAssay data set” (2004)
Several values for one entry are separate records, joined by “and”; a condition that tells them apart may be missing. Identical values can stand only once.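 Growth conditions: 96-well plates. Treatment: test compound, 48 hours, 5 concentrations. Analysis: linear interpolation between bracketing concentrations; unreached endpoints set to highest concentration. Here, GI50 denotes the concentration required for 50% inhibition of growth.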 Activity calls are given as the source filed them. Cut-off read from the data, not from the text of the source: active = GI50 up to about 1.1 µM and inactive = higher.

How the values were obtained:
Assay in all cases: DTP human tumour cell line panel, 48 h
DLD-1 = test system: DLD-1
DMS-114 = test system: DMS-114
DMS-273 = test system: DMS-273
KM-20L2 = test system: KM-20L2
M19-MEL = test system: M19-MEL
SNB-78 = test system: SNB-78
XF498 = test system: XF498
HOP-18 = test system: HOP-18
RXF 631 = test system: RXF 631

SMILES	GI50 (DLD-1)	GI50 (DMS-114)	GI50 (DMS-273)	GI50 (KM-20L2)	GI50 (M19-MEL)	GI50 (SNB-78)	GI50 (XF498)	GI50 (HOP-18)	GI50 (RXF 631)
C(=C\c1c2oc(-c3ccccc3)cc(-c3ccccc3)c-2c2ccccc12)/C=C1\c2ccccc2-c2c(-c3ccccc3)cc(-c3ccccc3)[o+]c21.[O-][Cl+3]([O-])([O-])[O-]	> 100 µM (inactive)	> 100 µM (inactive)	> 100 µM (inactive)	> 100 µM (inactive)	> 100 µM (inactive)	> 100 µM (inactive)	> 100 µM (inactive)		
COc1cccc2c1C1=CC(=O)CCC1C(C)(C)O2 (centres undefined)	57.5 µM (inactive)	27.8 µM (inactive)	> 100 µM (inactive)	> 100 µM (inactive)	> 100 µM (inactive)	> 100 µM (inactive)		> 100 µM (inactive)	> 100 µM (inactive)
O=C1/C(=C/c2ccc(Cl)cc2)CCC1CNc1ccc(Cl)cc1 (centres undefined)	1.68 µM (inactive)	3.94 µM (inactive)	1.73 µM (inactive)	1.46 µM (inactive)	3.97 µM (inactive)	23.7 µM (inactive)	12.8 µM (inactive)	33.9 µM (inactive)	
Cc1cc(C)c(C(=O)C(C)C(c2ccccc2)c2ccc(Cl)cc2)c(C)c1 (centres undefined)	> 100 µM (inactive)	> 100 µM (inactive) and 76.7 µM (inactive)			43.9 µM (inactive) and 33.3 µM (inactive)		61.2 µM (inactive) and 33.3 µM (inactive)	> 100 µM (inactive)	> 100 µM (inactive) and 95.1 µM (inactive)
C[N+](C)(C)CCc1ccccc1	> 100 µM (inactive)	> 100 µM (inactive)	> 100 µM (inactive)	> 100 µM (inactive)	> 100 µM (inactive)	> 100 µM (inactive)	> 100 µM (inactive)		> 100 µM (inactive)
COc1cccc2c1C(=O)C=CC2=O	7.19 µM (inactive)	4.92 µM (inactive)	15 µM (inactive)	16.7 µM (inactive)	4.45 µM (inactive)	4.54 µM (inactive)	2.52 µM (inactive)	10.4 µM (inactive)	
C=C/C=C(\NC(=O)C(Cl)(Cl)Cl)[Si](C)(C)C	> 100 µM (inactive)	> 100 µM (inactive)	> 100 µM (inactive)	> 100 µM (inactive)	> 100 µM (inactive)	> 100 µM (inactive)	> 100 µM (inactive)	> 100 µM (inactive)	
CCN(CC)CCC(=O)N1CCc2c([nH]c3ccccc23)C1c1cccnc1 (centres undefined)	> 100 µM (inactive)	> 100 µM (inactive)	> 100 µM (inactive)	> 100 µM (inactive)	> 100 µM (inactive)	> 100 µM (inactive)	> 100 µM (inactive)	> 100 µM (inactive)	
COc1ccc2nc(NC(=O)C(=O)CC(=O)c3ccc([N+](=O)[O-])cc3)sc2c1	> 100 µM (inactive)	90.6 µM (inactive)	> 100 µM (inactive)	> 100 µM (inactive)	> 100 µM (inactive)		> 100 µM (inactive)		> 100 µM (inactive)
CC(C)C(=O)/C=C/c1ccc(Cl)c(Cl)c1	14.6 µM (inactive)	19.2 µM (inactive)		19.2 µM (inactive)	17.7 µM (inactive)	34.8 µM (inactive)	12.5 µM (inactive)	11.4 µM (inactive)	
CN(CCN1C(=O)c2cc([N+](=O)[O-])cc3cc([N+](=O)[O-])cc(c23)C1=O)CCN1C(=O)c2cc([N+](=O)[O-])cc3cc([N+](=O)[O-])cc(c23)C1=O	0.448 µM (active)	0.605 µM (active)	0.391 µM (active)	1.1 µM (active)	0.369 µM (active)	0.255 µM (active)	0.211 µM (active)	10.6 µM (inactive)	
CCCN(CCC)c1c([N+](=O)[O-])cc(C(=O)N(CCO)CCO)cc1[N+](=O)[O-]	> 100 µM (inactive)		> 100 µM (inactive)		> 100 µM (inactive)	> 100 µM (inactive)	97.1 µM (inactive)	> 100 µM (inactive)	
CC[C@]1(O)C(=O)OCc2c1cc1n(c2=O)Cc2cc3c(N)cccc3nc2-1	> 100 µM (inactive)	> 100 µM (inactive)	> 100 µM (inactive)	> 100 µM (inactive)	> 100 µM (inactive)		> 100 µM (inactive)	> 100 µM (inactive)	> 100 µM (inactive)
CC(C)N1CC2CC(CN(C(=O)c3ccc(Cl)cc3)C2)C1		> 100 µM (inactive)	> 100 µM (inactive)	> 100 µM (inactive)	> 100 µM (inactive)		> 100 µM (inactive)	> 100 µM (inactive)	> 100 µM (inactive)
CN(C)C(=S)SN(C)C(=O)Nc1ccccc1	31.1 µM (inactive)	2.4 µM (inactive)	18.2 µM (inactive)	> 49.2 µM (inactive)	2.21 µM (inactive)	39.9 µM (inactive)			> 51.9 µM (inactive)
CN(C)C=C1C(=O)N(C)C(=O)N(C)C1=O	> 100 µM (inactive)	> 100 µM (inactive)	> 100 µM (inactive)	> 100 µM (inactive)	> 100 µM (inactive)	> 100 µM (inactive)	> 100 µM (inactive)	> 100 µM (inactive)	
Cc1ccc(S(=O)(=O)c2ccc(C)cc2[N+](=O)[O-])cc1	> 100 µM (inactive)	22.4 µM (inactive)	> 100 µM (inactive)	> 100 µM (inactive)	47.1 µM (inactive)	64.4 µM (inactive)		> 100 µM (inactive)	
O=C(/C=C/c1ccc(Cl)c(Cl)c1)c1ccc2ccccc2c1	> 100 µM (inactive)	> 100 µM (inactive)	> 100 µM (inactive)	> 100 µM (inactive)	> 100 µM (inactive)	> 100 µM (inactive)		> 100 µM (inactive)	> 100 µM (inactive)
COc1ccc(C/C(=N/O)C(=O)NCCc2cc(Br)c(OCCCN(C)C)c(Br)c2)cc1Br [APLYSAMINE 2]	7.8 µM (inactive)	18.5 µM (inactive)	0.791 µM (active)	18.5 µM (inactive)	18.2 µM (inactive)	18.5 µM (inactive)	12.9 µM (inactive)	0.0528 µM (active)	
C[N+](C)(C)CC(=O)N/N=C(/C(=O)Nc1ccc(Br)cc1)C1C(=O)NC(=O)NC1=O	> 100 µM (inactive)	> 100 µM (inactive)	> 100 µM (inactive)	> 100 µM (inactive)	> 100 µM (inactive)	> 100 µM (inactive)		> 100 µM (inactive)	> 100 µM (inactive)
O=C(CC(=O)n1nc(-c2ccccc2)c(/N=N/c2ccc([N+](=O)[O-])cc2)c1-c1ccccc1)Nc1ccc(Cl)cc1	22 µM (inactive)	5.92 µM (inactive)	19.9 µM (inactive)	3.25 µM (inactive)	35.6 µM (inactive)	88.5 µM (inactive)	26.2 µM (inactive)	26.4 µM (inactive)	55.6 µM (inactive)
O=c1oc2ccccc2[n+]([O-])c1-c1ccccc1	> 100 µM (inactive)	> 100 µM (inactive)	> 100 µM (inactive)	> 100 µM (inactive)	> 100 µM (inactive)	> 100 µM (inactive)	> 100 µM (inactive)	> 100 µM (inactive)	> 100 µM (inactive)
NNC(=O)CC(=O)Nc1ccccc1F	> 100 µM (inactive)	> 100 µM (inactive)	> 100 µM (inactive)	> 100 µM (inactive)	> 100 µM (inactive)	> 100 µM (inactive)		> 100 µM (inactive)	> 100 µM (inactive)
CCOC(=O)c1ccc(/N=C/c2ccc(N(CCC#N)S(=O)(=O)c3ccccc3)cc2C)cc1	25.1 µM (inactive)	36 µM (inactive)	65.3 µM (inactive)	16.4 µM (inactive)	36.6 µM (inactive)	33.2 µM (inactive)	> 100 µM (inactive)		> 100 µM (inactive)
Cc1ccc(C(=O)O/N=C2/CCCC/C2=C\c2ccccc2)cc1	78.5 µM (inactive)		27.7 µM (inactive)	83.9 µM (inactive)	67.9 µM (inactive)	15.6 µM (inactive)	39.4 µM (inactive)	> 100 µM (inactive)	
C=C1C(=O)OC2C1C(OC(=O)/C(=C/C)COC(C)=O)CC1(CO1)C1C(OC(=O)/C(=C/C)CO)C=C(C)C21 (centres undefined)	1.34 µM (inactive)	1.85 µM (inactive)	1.73 µM (inactive)	2.52 µM (inactive)	1.79 µM (inactive)	1.65 µM (inactive)	1.45 µM (inactive)	1.34 µM (inactive)	
